Test results published in patent US20130184227A1, “Cytochrome P450 2C9 Inhibitors” (priority 2004, published 2013).
Where two headings read alike, the source gives them in different places.

Key:
CYP2C9 [1] = conditions: tolbutamide 1 mM, rat liver microsomes
CYP2C9 [2] = assay: in vitro; conditions: Sprague-Dawley, rat, microsomes
[3] = pH 7.4, % inhibition of CYP2C9 activity
[4] = pH 7.4, % inhibition of CYP2C9 activity, test article 1 μM, tolbutamide 1 mM, rat liver microsomes
[5] = pH 7.4, % inhibition of CYP2C9 activity, test article 10 μM, tolbutamide 1 mM, rat liver microsomes
[6] = pH 7.4, % inhibition of CYP2C9 activity, test article 100 μM, tolbutamide 1 mM, rat liver microsomes

Row | SMILES | inhibition at 7.5 min, 1 μM (CYP2C9 [2]; [3]) | inhibition at 7.5 min, 100 μM (CYP2C9 [2]; [3]) | inhibition at 7.5 min, 10 μM (CYP2C9 [2]; [3]) | further results
1 | C=C(C)C1CC=C(C)CC1 (single isomer, unassigned; (+)) [(+)-Limonene] |  |  |  | % inhibition of CYP2C9 activity (CYP2C9 [1]; test article 1 μM): 14.12%; % inhibition of CYP2C9 activity (CYP2C9 [1]; test article 10 μM): 10.55%; % inhibition of CYP2C9 activity (CYP2C9 [1]; test article 100 μM): 22.29%
2 | CC(=O)OCCCc1ccccc1 [3-Phenylpropyl Acetate] | 36.6% | 42.6% |  | 
3 | O=C1c2c(O)cc(O)cc2O[C@H](c2ccc(O)c(O)c2)[C@H]1O [(+)-Taxifolin] |  |  |  | inhibition at 7.5 min, 1 μM (CYP2C9 [2]; [4]): -1.29%; inhibition at 7.5 min, 10 μM (CYP2C9 [2]; [5]): 31.2%; inhibition at 7.5 min, 100 μM (CYP2C9 [2]; [6]): 50.5%
4 | O=c1cc(-c2ccccc2)oc2cc(O)c(O)c(O)c12 [Baicalein] |  |  |  | inhibition at 7.5 min, 2.5 μM (CYP2C9 [2]; [3]): 1.76%; inhibition at 7.5 min, 25 μM (CYP2C9 [2]; [3]): 5.06%
5 | O=c1cc(-c2ccccc2)oc2cc(O)cc(O)c12 [Chrysin] |  |  |  | inhibition at 7.5 min, 1 μM (CYP2C9 [2]; pH 7.4): 6.86%; inhibition at 7.5 min, 10 μM (CYP2C9 [2]; pH 7.4): 60.6%; inhibition at 7.5 min, 50 μM (CYP2C9 [2]; pH 7.4): 75.1%
6 | O=c1c(-c2ccc(O)cc2)coc2cc(O[C@@H]3O[C@H](CO)[C@@H](O)[C@H](O)[C@H]3O)ccc12 [Daidzin] |  |  |  | inhibition at 7.5 min, 1 μM (CYP2C9 [2]; pH 7.4): 0.95%; inhibition at 7.5 min, 10 μM (CYP2C9 [2]; pH 7.4): -2.46%; inhibition at 7.5 min, 25 μM (CYP2C9 [2]; pH 7.4): -1.16%; inhibition at 7.5 min, 100 μM (CYP2C9 [2]; pH 7.4): -1.33%
7 | COc1ccc(-c2cc(=O)c3c(O)cc(O[C@@H]4O[C@H](CO[C@@H]5O[C@@H](C)[C@H](O)[C@@H](O)[C@H]5O)[C@@H](O)[C@H](O)[C@H]4O)cc3o2)cc1O [Diosmin] | 1.51% |  | 4.7% | 
8 | CCCCCCCCCCCC1=C(O)C(=O)C=C(O)C1=O [Embelin] | 24.7% |  | 11.2% | inhibition at 7.5 min, 50 μM (CYP2C9 [2]; [3]): 18%
9 | O=c1c(-c2ccc(O)cc2)coc2cc(O)cc(O)c12 [Genistein] |  |  |  | inhibition at 7.5 min, 1 μM (CYP2C9 [2]; [4]): 49.6%; inhibition at 7.5 min, 10 μM (CYP2C9 [2]; [5]): 67.7%; inhibition at 7.5 min, 100 μM (CYP2C9 [2]; [6]): 82.7%; inhibition at 7.5 min, 1 μM (CYP2C9 [2]; pH 7.4, % inhibition of tolbutamide metabolism in microsomes, 1 μM, reaction time 7.5 minute, n = 3): 49.6%; inhibition at 7.5 min, 100 μM (CYP2C9 [2]; pH 7.4, % inhibition of tolbutamide metabolism in microsomes, 100 μM, reaction time 7.5 minute, n = 3): 82.7%; inhibition at 7.5 min, 10 μM (CYP2C9 [2]; pH 7.4, % inhibition of tolbutamide metabolism in microsomes, 10 Mm, reaction time 7.5 minute, n = 3): 67.7%; inhibition at 7.5 min, 1 μM (CYP2C9 [2]; pH 7.4, % inhibition, 1 μM (low concentration)): 49.6%; inhibition at 7.5 min, 10 μM (CYP2C9 [2]; pH 7.4, % inhibition, 10 μM (mid concentration)): 67.7%; inhibition at 7.5 min, 100 μM (CYP2C9 [2]; pH 7.4, % inhibition, 100 μM (high concentration)): 82.7%
10 | COc1ccc([C@@H]2CC(=O)c3c(O)cc(O[C@@H]4O[C@H](CO[C@@H]5O[C@@H](C)[C@H](O)[C@@H](O)[C@H]5O)[C@@H](O)[C@H](O)[C@H]4O)cc3O2)cc1O [Hesperidin] |  |  |  | % inhibition of CYP2C9 activity (CYP2C9 [1]; test article 1 μM): 2.57%; % inhibition of CYP2C9 activity (CYP2C9 [1]; test article 10 μM): 6.68%
11 | O=c1cc(-c2ccc(O)c(O)c2)oc2cc(O)c([C@@H]3O[C@H](CO)[C@@H](O)[C@H](O)[C@H]3O)c(O)c12 [Homoorientin] |  |  |  | % inhibition of CYP2C9 activity (CYP2C9 [1]; test article 1 μM): 3.37%; % inhibition of CYP2C9 activity (CYP2C9 [1]; test article 10 μM): 2.45%; % inhibition of CYP2C9 activity (CYP2C9 [1]; test article 100 μM): 20.19%
12 | COc1cc(-c2oc3cc(O)cc(O)c3c(=O)c2O)ccc1O [Isorhamnetin] |  |  |  | inhibition at 7.5 min, 1 μM (CYP2C9 [2]; pH 7.4): 19.6%; inhibition at 7.5 min, 10 μM (CYP2C9 [2]; pH 7.4): 61.5%; inhibition at 7.5 min, 75 μM (CYP2C9 [2]; pH 7.4): 65.7%
13 | CC1(C)CC[C@]2(C(=O)O)CC[C@]3(C)C(=CC[C@@H]4[C@@]5(C)CC[C@H](O)C(C)(C)[C@@H]5CC[C@]43C)[C@@H]2C1 [Oleanolic acid] |  |  |  | inhibition at 7.5 min, 1 μM (CYP2C9 [2]; [4]): 16.8%; inhibition at 7.5 min, 10 μM (CYP2C9 [2]; [5]): 42.4%; inhibition at 7.5 min, 100 μM (CYP2C9 [2]; [6]): 41.1%
14 | COc1ccc([C@@H]2CC(=O)c3c(O)cc(O[C@@H]4O[C@H](CO)[C@@H](O)[C@H](O)[C@H]4O[C@@H]4O[C@@H](C)[C@H](O)[C@@H](O)[C@H]4O)cc3O2)cc1 [Poncirin] | 7.76% | 15% | 16.3% | 
15 | C[C@@H]1O[C@@H](Oc2c(-c3ccc(O)c(O)c3)oc3cc(O)cc(O)c3c2=O)[C@H](O)[C@H](O)[C@H]1O [Quercitrin] |  |  |  | inhibition at 7.5 min, 1 μM (CYP2C9 [2]; pH 7.4): 24.2%; inhibition at 7.5 min, 10 μM (CYP2C9 [2]; pH 7.4): 21.1%; inhibition at 7.5 min, 100 μM (CYP2C9 [2]; pH 7.4): 13.5%
16 | C[C@@H]1O[C@@H](OC[C@H]2O[C@@H](Oc3c(-c4ccc(O)c(O)c4)oc4cc(O)cc(O)c4c3=O)[C@H](O)[C@@H](O)[C@@H]2O)[C@H](O)[C@H](O)[C@H]1O [Rutin] | -2.59% | -6.46% | -14% | 
17 | C=C[C@H]1[C@H](O[C@@H]2O[C@H](CO)[C@@H](O)[C@H](O)[C@H]2O)OC=C2C(=O)OCC[C@]21O [Swertiamarin] | 16.3% | 18.4% | 16.6% | 
18 | O=c1cc(-c2ccc(O)cc2)oc2cc(O)cc(O)c12 [apigenin] |  |  |  | inhibition at 7.5 min, 2.5 μM (CYP2C9 [2]; [3]): 21.7%; inhibition at 7.5 min, 25 μM (CYP2C9 [2]; [3]): 76.9%
19 | O=C(O)[C@H]1O[C@@H](Oc2cc3oc(-c4ccccc4)cc(=O)c3c(O)c2O)[C@H](O)[C@@H](O)[C@@H]1O [baicalin] |  |  |  | inhibition at 7.5 min, 2.5 μM (CYP2C9 [2]; [3]): -5.36%; inhibition at 7.5 min, 25 μM (CYP2C9 [2]; [3]): 7.77%
20 | CC(C)[C@@H](C)/C=C/[C@@H](C)[C@H]1CC[C@H]2C3=CC=C4C[C@@H](O)CC[C@]4(C)[C@H]3CC[C@]12C [ergosterol] | 1% |  | 8.12% | inhibition at 7.5 min, 30 μM (CYP2C9 [2]; [3]): 3.57%
21 | O=C(O)c1cc(O)c(O)c(O)c1 [gallic acid] | -3.05% | -0.97% | -2.47% | 
22 | CC1(C)[C@@H](O[C@H]2O[C@H](C(=O)O)[C@@H](O)[C@H](O)[C@H]2O[C@@H]2O[C@H](C(=O)O)[C@@H](O)[C@H](O)[C@H]2O)CC[C@]2(C)[C@H]3C(=O)C=C4[C@@H]5C[C@@](C)(C(=O)O)CC[C@]5(C)CC[C@@]4(C)[C@]3(C)CC[C@@H]12 [glycyrrhizin] | 5.14% | 4.87% | 2.23% | 
23 | O=c1c(O[C@@H]2O[C@H](CO)[C@@H](O)[C@H](O)[C@H]2O)c(-c2ccc(O)c(O)c2)oc2cc(O)cc(O)c12 [isoquercitrin] | 20.9% | 61.8% | 27% | 
24 | C[C@@]12C[C@@]3(O)O[C@@H](O1)[C@]1(COC(=O)c4ccccc4)[C@H]3C[C@@]12O[C@@H]1O[C@H](CO)[C@@H](O)[C@H](O)[C@H]1O [paeoniflorin] | 10.1% | -1.77% | 0.7% | 
25 | O=c1c(O)c(-c2ccc(O)c(O)c2)oc2cc(O)cc(O)c12 [quercetin] |  |  |  | inhibition at 7.5 min, 1 μM (CYP2C9 [2]; pH 7.4): 15.1%; inhibition at 7.5 min, 10 μM (CYP2C9 [2]; pH 7.4): 44.8%; inhibition at 7.5 min, 100 μM (CYP2C9 [2]; pH 7.4): 91.9%
26 | O=C(O)/C=C/c1ccccc1 [trans-cinnamic acid] | 26.9% | 26.1% | 15.8% | 
27 | C=CC(=C)CCC=C(C)C [β-Myrcene] | 24.1% | 29.9% | 16.6% | 

More lines, main results first:

Row | inhibition at 7.5 min, 1 μM (CYP2C9 [2]; [3]) | inhibition at 7.5 min, 100 μM (CYP2C9 [2]; [3]) | inhibition at 7.5 min, 10 μM (CYP2C9 [2]; [3]) | SMILES | further results
28 | 1.35% |  | 13.4% | O=c1c(-c2ccc(O)cc2)coc2cc(O)ccc12 [Daidzein] | inhibition at 7.5 min, 25 μM (CYP2C9 [2]; [3]): 15.7%
29 | 23.3% |  | 30.6% | COc1ccc(-c2coc3cc(O)ccc3c2=O)cc1 [Formononetin] | inhibition at 7.5 min, 50 μM (CYP2C9 [2]; [3]): 57.9%
30 | 30.9% |  | 37.4% | COc1cc(O)c2c(=O)cc(-c3ccc(O)cc3)oc2c1 [Genkwanin] | 
31 | -3.58% |  | 29.1% | COc1ccc([C@@H]2CC(=O)c3c(O)cc(O)cc3O2)cc1O [Hesperetin] | 
32 | 18.1% | 24.8% | 18.4% | O=C1C[C@@H](c2ccc(O[C@@H]3O[C@H](CO)[C@@H](O)[C@H](O)[C@H]3O)cc2)Oc2cc(O)ccc21 [Liquiritin] | 
33 | 14.3% | 51% | 11.6% | O=c1c(O)c(-c2ccc(O)cc2O)oc2cc(O)cc(O)c12 [Morin] | 
34 | -16.1% | 81.2% | 9.76% | CC(Cc1ccc(O)c(O)c1)C(C)Cc1ccc(O)c(O)c1 (stereo not drawn) [Nordihydroguaiaretic acid] | 
35 | 23.8% | 95.1% | 34.4% | O=C(CCc1ccc(O)cc1)c1c(O)cc(O)cc1O [Phloretin] | 
36 | 38.1% | 33.3% | 39% | O=c1c(-c2ccc(O)cc2)coc2c([C@@H]3O[C@H](CO)[C@@H](O)[C@H](O)[C@H]3O)c(O)ccc12 [Puerarin] | 
37 | -7.17% | -2.02% | -6.64% | O=c1ccc2ccc(O)cc2o1 [Umbelliferone] | 
38 | 32.8% | 69.6% | 28.6% | O=C1C[C@@H](c2ccc(O)c(O)c2)Oc2cc(O)cc(O)c21 [eriodictyol] | 
39 | 35.6% | 45.4% | 37.4% | O=c1cc(-c2ccc(O)cc2)oc2cc(O)c([C@@H]3O[C@H](CO)[C@@H](O)[C@H](O)[C@H]3O)c(O)c12 [isovitexin] | 
40 | -22.3% |  | 38.3% | O=c1c(O)c(-c2ccc(O)cc2)oc2cc(O)cc(O)c12 [kaempferol] | 
41 | 20.1% | 93.2% | 37.9% | O=c1cc(-c2ccc(O)c(O)c2)oc2cc(O)cc(O)c12 [luteolin] | 
42 | -3.19% | 88.8% | 10.6% | O=c1c(O)c(-c2cc(O)c(O)c(O)c2)oc2cc(O)cc(O)c12 [myricetin] | 
43 | 20.3% |  | 16.2% | O=C(O)c1ccc(O)c(O)c1 [protocatechuic acid] | 
